Measured values: patent US7569724B2, “Carbamic acid compounds comprising an amide linkage as HDAC inhibitors” (Topotarget UK Limited, priority 2000, dated 2009)
Counter-ions that a name gives are not always drawn. Like-named read-outs stand apart in the source and are kept apart here.

Assays:
[1] = tested on: HDAC (HeLa cell extract); experiment: Primary assay: deacetylase activity, HeLa cell extract as source of HDAC; assay type: biochemical, human; conditions: HeLa cell extract; for HDAC Inhibition HeLa, percent / percent HDAC inhibition at the stated concentration: @ 500 nM
Source text: Briefly, this assay relies on the release of radioactive acetate from a radioactively labelled histone fragment by the action of HDAC enzyme. Test compounds, which inhibit HDAC, reduce the yield of radioactive acetate. Signal (e.g., scintillation counts) measured in the presence and absence of a test compound provide an indication of that compound's ability to inhibit HDAC activity. Decreased activity indicates increased inhibition by the test compound.
The histone fragment was an N-terminal sequence from histone H4, and it was labelled with radioactively labelled acetyl groups using tritiated acetylcoenzyme A (coA) in conjunction with an enzyme which is the histone acetyltransferase domain of the transcriptional coactivator p300. […] The acetylated peptide was then separated from free acetyl coA by size exclusion chromatography on Sephadex G-15 (Sigma G-15-120), using distilled H2O as the mobile phase.
After purification of the radiolabelled histone fragment, it was incubated with a source of HDAC (e.g., an extract of HeLa cells (a rich source of HDAC), recombinantly produced HDAC1 or HDAC2) and any released acetate was extracted into an organic phase and quantitatively determined using scintillation counting. By including a test compound with the source of HDAC, that compound's ability to inhibit the HDAC was determined.
The HeLa cell extract was made from HeLa cells (ATCC Ref. No. CCL-2) by freeze-thawing three times in 60 mM TrisCl pH 8.0, 450 mM NaCl, 30% glycerol. Two cell volumes of extraction buffer were used, and particulate material was centrifuged out (20800 g, 4° C., 10 min). The supernatant extract having deacetylase activity was aliquotted and frozen for storage.
A source of HDAC (e.g., 2 μL of crude HeLa extract, 5 μL of HDAC1 or HDAC2; in elution buffer, as above) was incubated with 3 μL of radioactively labelled peptide along with appropriate dilutions of candidate compounds (1.5 μL) in a total volume of 150 μL of buffer (20 mM Tris pH 7.4, 10% glycerol). The reaction was carried out at 37° C. for one hour, after which the reaction was stopped by adding 20 μL of 1 M HCl/0.4 M sodium acetate. […] Radioactivity was measured using a Tri-Carb 2100TR Liquid Scintillation Analyzer (Packard).
Percent activity (% activity) for each test compound was calculated as: % activity={(S^C−B)/(S^o−B)}×100 wherein S^C denotes signal measured in the presence of enzyme and the compound being tested, S^o denotes signal measured in the presence of enzyme but in the absence of the compound being tested, and B denotes the background signal measured in the absence of both enzyme and compound being tested.

[2] = tested on: HeLa cells; experiment: Secondary assay: cell proliferation WST-1, HeLa; assay type: cell-based; conditions: Homo sapiens, 48 h, read-out: Cell Proliferation Inhibition WST-1 (IC50 unless otherwise specified) HeLa
Description: Compounds with HDAC inhibition activity, as determined using the primary assay, were subsequently evaluated using secondary cell-based assays. The following cell lines were used:
HeLa—Human cervical adenocarcinoma cell line (ATCC ref. No. CCL-2).
Cells were plated in 96-well plates at 3-10×10^3 cells/well in 100 μL of culture medium. The following day, different concentrations of candidate compounds were added and the cells incubated at 37° C. for 48 h. Subsequently, 10 μL/well of WST-1 reagent was added and the cells reincubated for 1 hour. After the incubation time, absorbance was measured.
WST-1 is a tetrazolium salt which is cleaved to formazan dye by cellular enzymes. An expansion in the number of viable cells results in an increase in the overall activity of mitochondrial dehydrogenases in the sample. This augmentation in the enzyme activity leads to an increase in the amount of formazan dye formed, which directly correlates to the number of metabolically active cells in the culture. The formazan dye produced is quantified by a scanning multiwell spectrophotometer by measuring the absorbance of the dye solution at 450 nm wavelength (reference wavelength 690 nm).
Percent activity (% activity) in reducing the number of viable cells was calculated for each test compound as: % activity={(S^C−B)/(S^o−B)}×100 wherein S^C denotes signal measured in the presence of the compound being tested, S^o denotes signal measured in the absence of the compound being tested, and B denotes the background signal measured in blank wells containing medium only.
IC50 values were calculated using the software package Prism 3.0 (GraphPad software Inc., San Diego, Calif.), setting top value at 100 and bottom value at 0.

[3] = read-out: HDAC Inhibition (IC50 unless otherwise specified) HeLa
[4] = comparative tables, read-out: HeLa IC50

| SMILES | HDAC Inhibition HeLa, percent [1] | melting point | other results |
| --- | --- | --- | --- |
| O=C(CCCCCNC(=O)CCc1ccccc1)NO [PX106516, 6-(3-Phenylpropionylamino)hexanoic acid hydroxyamide] | 27% @ 500 nM | 107 °C |  |
| COc1ccc(C(=O)NCCCCCC(=O)NO)cc1OC [PX116213, N-[6-(Hydroxyamino)-6-oxohexyl]-3,4-dimethoxybenzamide] | 48% @ 500 nM | 133 °C |  |
| O=C(CCCCCCC(=O)NCc1ccccc1)NO [PX117418, Octanedioic acid benzylamide hydroxyamide] | 39% @ 500 nM | 126 to 126.5 °C |  |
| CN(C)c1ccc(CC(=O)NCCCCCC(=O)NO)cc1 [PX117458, 6-[2-(4-Dimethylamino-phenyl)-acetylamino]-hexanoic acid hydroxyamide] | 9% @ 500 nM | 124 to 126 °C | percent HDAC inhibition at the stated concentration ([1]; comparative tables): 9% @ 500 nM |
| O=C(CCCCCCC(=O)NCCc1cccc2ccccc12)NO [PX116224, Octanedioic acid hydroxyamide (2-naphthalen-1-yl-ethyl)-amide] | 78% @ 500 nM | 120 to 121.5 °C |  |
| N#Cc1ccc(C(=O)NCCCCCC(=O)NO)cc1 [PX106497, 4-Cyano-N-(5-hydroxycarbamoylpentyl)-benzamide] | 30% @ 500 nM | 234 to 236 °C |  |
| O=C(/C=C/c1cccnc1)NCCCCCC(=O)NO (as salt: oxalate) [PX116231, E-N-(5-Hydroxycarbamoyl-pentyl)-3-pyridin-3-yl-acrylamide oxalate] |  | 157 to 159 °C |  |
| CN(C)c1ccc(C(=O)NCCCCCC(=O)NO)cc1 [PX089274, 4-Dimethylamino-N-(5-hydroxycarbamoyl-pentyl)-benzamide] |  |  | IC50 [2]: 4400 nM; IC50 [1, 3]: 109 nM; IC50 [1, 4]: 110 nM |
| O=C(/C=C/c1ccccc1)NCCCCCC(=O)NO [PX106517, N-(5-Hydroxycarbamoylpentyl)-3-phenylacrylamide] |  |  | IC50 [2]: 470 nM; IC50 [1, 3]: 83 nM; IC50 [1, 4]: 83 nM |
| O=C(CCCCCCC(=O)NCc1cccc2ccccc12)NO [PX117459, Octanedioic acid hydroxyamide (naphthalen-1-ylmethyl)-amide] | 63% @ 500 nM | 141 to 143 °C |  |
| O=C(CCCCCCC(=O)NC(c1ccccc1)c1ccccc1)NO [PX117417, N^1-benzhydryl-N^8-hydroxyoctanediamide] | 56% @ 500 nM | 155 to 156.5 °C |  |
| O=C(CCCCCNC(=O)CCc1ccco1)NO [PX105827, 6-(3-Furan-2-yl-propionylamino)-hexanoic acid hydroxyamide] | 34% @ 500 nM | 127 to 128 °C | percent HDAC inhibition at the stated concentration ([1]; comparative tables): 34% @ 500 nM |
| Cn1cccc1/C=C/C(=O)NCCCCCC(=O)NO [PX117239, E-3-(1-Methyl-1H-pyrrol-2-yl)-N-(5-hydroxycarbamoylpentyl)-acrylamide] | 85% @ 500 nM |  | IC50 [2]: 10000 nM |
| O=C(/C=C/c1ccccn1)NCCCCCC(=O)NO (as salt: oxalate) [PX106528, (E)-N-(5-Hydroxycarbamoylpentyl)-3-pyridin-2-yl-acrylamide oxalate] |  | 126 to 128 °C |  |
| O=C(CCCCCNC(=O)c1ccc(Br)o1)NO [PX116221, 5-Bromo-furan-2-carboxylic acid (5-hydroxycarbamoyl-pentyl)-amide] | 72% @ 500 nM | 122 to 124 °C |  |
| O=C(CCCCCNC(=O)Cc1c[nH]c2ccccc12)NO [PX116214, 6-(2-1H-lndol-3-yl-acetylamino)-hexanoic acid hydroxyamide] | 35% @ 500 nM | 130 to 131.5 °C |  |
| O=C(CCCCCNC(=O)c1ccc(Br)cc1)NO [PX116215, 4-Bromo-N-(5-hydroxycarbamoyl-pentyl)-benzamide] | 70% @ 500 nM | 164 to 166 °C |  |
| O=C(/C=C/c1cccc(NC(=O)CCCc2ccccc2)c1)NO [PX116212, (E)-N-Hydroxy-3-{3-[(4-phenylbutanoyl)amino]phenyl}-2-propenamide] | 72% @ 500 nM | 152 to 153 °C |  |
| O=C(CCCCCNC(=O)Cc1csc2ccccc12)NO [PX117442, 6-(2-Benzothiophen-3-yl-acetylamino)-hexanoic acid hydroxyamide] | 31% @ 500 nM | 113 to 115 °C |  |
| COc1ccc(/C=C/C=C/C(=O)NCCCCCC(=O)NO)cc1 [PX106524, (2E,4E)-(4-Methoxyphenyl)penta-2,4-dienoic acid (5-hydroxycarbamoylpentyl)-amide] | 57% @ 500 nM | 152 to 154 °C |  |
| O=C(/C=C/c1ccncc1)NCCCCCC(=O)NO (as salt: oxalate) [PX106521, (E)-N-(5-Hydroxycarbamoylpentyl)-3-pyridin-4-yl-acrylamide oxalate] |  | 168 to 170 °C |  |
| O=C(CCCCCNC(=O)c1ccc([N+](=O)[O-])cc1)NO [PX106495, N-(5-Hydroxycarbamoylpentyl)-4-nitrobenzamide] | 34% @ 500 nM | 139.5 to 141 °C |  |
| C/C(=C\C(=O)NCCCCCC(=O)NO)c1ccccc1 [PX117254, E-3-Phenylbut-2-enoic acid (5-hydroxycarbamoylpentyl)-amide] |  |  | IC50 [2]: 6600 nM; IC50 [1, 3]: 40 nM |
| O=C(CCCCCNC(=O)c1ccc(I)cc1)NO [PX106494, N-(5-Hydroxycarbamoylpentyl)-4-iodobenzamide] |  | 168 to 169 °C | IC50 [1, 3]: 100 nM |
| O=C(CCCCC(=O)NCCc1c[nH]c2ccccc12)NO [PX116217, Hexanedioic acid hydroxyamide [2-(1H-indol-3-yl)-ethyl]-amide] | 17% @ 500 nM | 121 to 122.5 °C |  |
| O=C(CCCCCCC(=O)NCCc1nc2ccccc2[nH]1)NO [PX116241, N^1-[2-(1H-Benzimidazol-2-yl)ethyl]-N^8-hydroxyoctanediamide] | 39% @ 500 nM |  | IC50 [2]: 56000 nM |
| O=C(CCCCCNC(=O)C/C=C/c1ccccc1)NO [PX116211, (E)-N-[6-(Hydroxyamino)-6-oxohexyl]-4-phenyl-3-butenamide] |  | 127 to 128 °C |  |
| O=C(/C=C/c1ccc(NC(=O)Cc2cccc3ccccc23)cc1)NO [PX116244, (E)-N-Hydroxy-3-(4-{[2-(1-naphthyl)acetyl]amino}phenyl)-2-propenamide] |  |  | IC50 [2]: < 310 nM; IC50 [1, 3]: 22 nM |
| O=C(/C=C/C=C/c1cccc2ccccc12)NCCCCCC(=O)NO [PX117237, (2E)(4E)-5-Naphthalen-1-yl-penta-2,4-dienoic acid (5-hydroxycarbamoylpentyl)amide] |  |  | IC50 [2]: 17000 nM; IC50 [1, 3]: 63 nM; IC50 [1, 4]: 63 nM |
| O=C(CCCCCNC(=O)Cc1ccc(-c2ccccc2)cc1)NO [PX106488, 6-(2-Biphenyl-4-yl-acetylamino)-hexanoic acid hydroxyamide] | 51% @ 500 nM | 226 to 227 °C | percent HDAC inhibition at the stated concentration ([1]; comparative tables): 51% @ 500 nM |
